Data published in paper PMC7311396, “Ultra-large chemical libraries for the discovery of high-affinity peptide binders” (Nature Communications, 2020).
Non-standard residues stand in square brackets, D forms with d. Residues, ends and D or L forms follow the SMILES beside them.

Legend:
[1] = test system: 12ca5; assay: Affinity selection from 10^8-member library against 12ca5 with exogenous competitor; settings: 10 pM/member, 0.13 nmol 12ca5
[2] = test system: anti-HA mAb clone 12ca5; assay: Competition fluorescence polarization of HA epitope and analogues; assay type: binding; settings: for IC50: competition FP, 100 nM 12ca5, 28 nM YPYDVPDYAK(FITC)-CONH2, 1 mg/mL BSA, 0.02% Tween 20, 1x PBS, RT, read after 1 h; for Kd: from competition FP, 100 nM 12ca5, 28 nM FITC tracer
Description: Competition fluorescence polarization of HA epitope and analogues:
Solutions of unlabeled peptides (~1 mg/mL each; Supplementary Table 1) in 1x PBS was prepared in the presence of 100 nM 12ca5, 1 mg/mL BSA, 0.02% Tween 20 (120 μL). Fluorescent competitor was added (YPYDVPDYAK(FITC)α-CONH2; 28 nM).
The resulting solution was diluted serially (20 μL) into 100 nM 12ca5, 28 nM […]
YPYDVPDYAK(FITC)α-CONH2, 1 mg/mL BSA, 0.02% Tween 20 in 1x PBS (80 μL; […]
5-fold dilutions). The resulting solutions were transferred to a 96 well plate (Greiner Bio- […]
(RT), and read after 1 h on a Tecan Infinite M1000 plate reader (470 nm excitation; 517 nm detection; 5 nm bandwidth). The concentration of fluorescent […] was determined based on absorbance at 490 nm, using ε = 76,900 M-1cm-1.
Competition fluorescence polarization of HA epitope Ala scan mutants:
Competition fluorescence polarization experiments were carried out as described in Competition fluorescence polarization of HA epitope and analogues.

[3] = test system: 12ca5; assay: Magnetic bead affinity capture of 12ca5-binding peptides, recovery by nLC-MS; design: species or system mouse
Description: Identification of binders from high-diversity libraries would necessitate their efficient recovery at high dilution. To assess the utility of magnetic bead-based affinity capture for this purpose, we investigated the recovery of a number of peptide binders with varying affinity for anti-HA mAb clone 12ca5 (12ca5), which recognizes the linear motif DXXDYA (Supplementary Figs. 1–6; Supplementary Table 1). In these experiments, streptavidin-coated magnetic beads (1 mg; 0.13 nmol IgG binding capacity) functionalized with biotinylated 12ca5 were incubated with mixtures of 12ca5-binding peptides (either 1 nM/peptide, 100 pM/peptide, or 10 pM/peptide; 1 mL scale). The magnetic beads were isolated, washed with buffer, and treated with chemical denaturant to elute bound peptides. A portion of this eluate (~2%) was subjected to nLC-MS analysis, and recovery was quantified using normalized MS response. To calculate recovery, a separate dose-response curve was generated for each peptide, since their MS responses varied by ~5-fold (Supplementary Fig. 7). […]

SMILES | competitor concentration required to attenuate the recovery of DXXDY(A/S) peptides [1] [µM] | IC50 [2] [nM] | Kd [2] [nM] | recovery ([3]; 1 mg 12ca5-functionalized beads, 1 mL, 1 nM to 10 pM/peptide, 1 h 4 °C, 3 PBS washes (~6 min), normalized MS response) [%] | recovery expected based on measured dissociation rate ([3]; based on koff = 3.0 × 10^−3 s^−1 and total wash time of ~6 min) [%]
NCC(=O)N[C@H](Cc1ccc(O)cc1)C(=O)N1CCC[C@@H]1C(=O)N[C@H](Cc1ccc(O)cc1)C(=O)N[C@H](CCC(=O)O)C(=O)N[C@H](Cc1ccc(O)cc1)C(=O)N[C@H](CC(=O)O)C(=O)N[C@H](Cc1c[nH]c2ccccc12)C(=O)N[C@H](CCC(=O)O)C(N)=O [Gypyeydwe, reference compound] (H-G[dY][dP][dY][dE][dY][dD][dW][dE]-NH2) | 100 | 62000 ± 8000 | 3000 |  | 
C[C@H](NC(=O)[C@H](Cc1ccc(O)cc1)NC(=O)[C@H](CC(=O)O)NC(=O)[C@H](CCC(=O)O)NC(=O)[C@H](Cc1ccc(O)cc1)NC(=O)[C@H](CC(=O)O)NC(=O)[C@@H](N)Cc1ccccc1)C(=O)N[C@@H](CCC(=O)O)C(=O)N[C@@H](Cc1c[nH]c2ccccc12)C(=O)N[C@@H](CCCCN)C(N)=O [FDYEDYAEWK] (H-FDYEDYAEWK-NH2) |  | 590 ± 190 | 25 ± 13 | 33 | 34
